# Laboratory results from US7932270B2 (Cytokinetics, Inc., priority 2006, dated 2011).
# Target: T1, chicken gizzard smooth muscle myosin subfragment-1 chemically crosslinked to cardiac or skeletal actin (Gallus gallus, UniProt P10587)
# T1 construct: chicken gizzard smooth muscle myosin subfragment-1; from tissue; host or cells: chicken gizzard
# Experiment: Smooth muscle myosin ATPase dose response assay (pyruvate kinase/horseradish peroxidase/pyruvate oxidase-coupled, amplex red fluorescence)
# Type: biochemical
# Settings: read-out: IC50 Arithmetic Mean
# In short: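 EDC/NHS-crosslinked S1–actin, amount set per prep by rate titration. Buffer: 12 mM K-PIPES pH 7.00 (22° C), 100 mM KCl, 2 mM MgCl2, 0.15 mM ATP, 0.1 mM PEP, 2 mM KPi, 0.1 mM amplex red. Read ex 480/em 615 nm; IC50 = midpoint, 4-param Hill fit.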
# T1 sequence (P02607 2-151): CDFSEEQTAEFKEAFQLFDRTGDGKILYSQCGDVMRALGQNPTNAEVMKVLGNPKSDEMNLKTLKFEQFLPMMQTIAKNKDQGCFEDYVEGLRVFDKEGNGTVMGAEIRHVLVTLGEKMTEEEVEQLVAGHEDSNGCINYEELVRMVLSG
# T1 sequence (P10587 84-789): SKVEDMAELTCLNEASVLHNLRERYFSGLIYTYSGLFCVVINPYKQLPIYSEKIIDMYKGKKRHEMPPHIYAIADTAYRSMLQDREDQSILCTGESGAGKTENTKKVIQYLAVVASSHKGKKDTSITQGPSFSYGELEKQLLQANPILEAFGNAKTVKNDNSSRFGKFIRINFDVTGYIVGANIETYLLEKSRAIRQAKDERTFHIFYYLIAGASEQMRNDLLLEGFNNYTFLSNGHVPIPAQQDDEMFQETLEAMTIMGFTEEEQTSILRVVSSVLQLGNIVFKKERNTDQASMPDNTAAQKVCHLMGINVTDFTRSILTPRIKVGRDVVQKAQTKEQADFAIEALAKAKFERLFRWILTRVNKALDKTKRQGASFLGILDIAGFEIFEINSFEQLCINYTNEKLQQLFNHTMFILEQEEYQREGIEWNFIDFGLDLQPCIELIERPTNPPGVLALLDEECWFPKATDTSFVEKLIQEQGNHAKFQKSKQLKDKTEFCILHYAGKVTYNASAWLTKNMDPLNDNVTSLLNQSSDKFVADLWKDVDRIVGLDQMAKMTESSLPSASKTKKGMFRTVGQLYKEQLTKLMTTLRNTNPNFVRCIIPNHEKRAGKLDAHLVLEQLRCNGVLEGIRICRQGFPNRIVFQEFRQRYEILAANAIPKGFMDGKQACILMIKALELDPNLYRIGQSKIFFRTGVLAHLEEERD
row,SMILES,IC50
1,CC(C)(C)OC(=O)NCc1ncccc1CNC(=O)c1ccc(-c2cnn(CCO)c2)nc1NCCc1cccc(F)c1 [N-[(2-{[(tert-butoxy)carbonylamino]methyl}(3-pyridyl))methyl](2-{[2-(3-fluorophenyl)ethyl]amino}-6-[1-(2-hydroxyethyl)pyrazol-4-yl](3-pyridyl))carboxamide],15000 nM
2,N#Cc1ccccc1-c1ccc(C(=O)NC[C@H]2CCCCN2C(=O)CN)c(NCCc2cccc(F)c2)n1 [N-{[(2R)-1-(2-aminoacetyl)(2-piperidyl)]methyl}(6-(2-cyanophenyl)-2-{[2-(3-fluorophenyl)ethyl]amino}(3-pyridyl))carboxamide],92 nM
3,CC(C)(C)OC(=O)NCC(=O)N1CCC[C@@H]1CNC(=O)c1cc(F)c(-c2cn[nH]c2)nc1NCCc1cccc(F)c1 [N-[((2R)-1-{2-[(tert-butoxy)carbonylamino]acetyl}pyrrolidin-2-yl)methyl](5-fluoro-2-{[2-(3-fluorophenyl)ethyl]amino}-6-pyrazol-4-yl(3-pyridyl))carboxamide],1080 nM
4,"Cn1cc(-c2nc(NCCc3cccc(F)c3)c(C(=O)NC[C@H]3CCCN3C(=O)C(O)CO)cc2F)cn1 (stereo partly drawn) [N-{[(2R)-1-(2,3-dihydroxypropanoyl)pyrrolidin-2-yl]methyl}(5-fluoro-2-{[2-(3-fluorophenyl)ethyl]amino}-6-(1-methylpyrazol-4-yl)(3-pyridyl))carboxamide]",143 nM
5,CC1CN(C(=O)c2cc(F)c(-c3cnn(C)c3)nc2NCCc2cccc(F)c2)C1 [5-fluoro-2-{[2-(3-fluorophenyl)ethyl]amino}-6-(1-methylpyrazol-4-yl)(3-pyridyl) 3-methylazetidinyl ketone],10500 nM
6,O=C(NC[C@@H]1CCNC1)c1ccc(-c2ccccc2)nc1NCCc1ccccn1 [N-[((3R)pyrrolidin-3-yl)methyl]{6-phenyl-2-[(2-(2-pyridyl)ethyl)amino](3-pyridyl)}carboxamide],53600 nM
7,NCC1CCCCN1C(=O)c1ccc(-c2ccccc2)nc1NCCc1ccccn1 (stereo not drawn) [2-(aminomethyl)piperidyl 6-phenyl-2-[(2-(2-pyridyl)ethyl)amino](3-pyridyl) ketone],18200 nM
8,CC(C)(C)OC(=O)NCCCN1C(=O)CC[C@@H]1CNC(=O)c1cc(C#N)c(-c2cn[nH]c2)nc1NCCc1cccc(F)c1 [N-[((2R)-1-{3-[(tert-butoxy)carbonylamino]propyl}-5-oxopyrrolidin-2-yl)methyl](5-cyano-2-{[2-(3-fluorophenyl)ethyl]amino}-6-pyrazol-4-yl(3-pyridyl))carboxamide],3510 nM
9,CNC(=O)[C@H](CO)NC(=O)c1ccc(-c2ccccc2C#N)nc1NCCc1cccc(F)c1 [(2S)-2-[(6-(2-cyanophenyl)-2-{[2-(3-fluorophenyl)ethyl]amino}(3-pyridyl))carbonylamino]-3-hydroxy-N-methylpropanamide],1120 nM
10,CC(C)(CNC(=O)c1ccc(-c2ccccc2C#N)nc1NCCc1cccc(F)c1)NC=O [N-(2-carbonylamino-2-methylpropyl)(6-(2-cyanophenyl)-2-{[2-(3-fluorophenyl)ethyl]amino}(3-pyridyl))carboxamide],151 nM
11,N#Cc1ccccc1-c1ccc(C(=O)NC[C@H]2CCCN2C(=O)[C@@H](N)CO)c(NCCc2cccc(F)c2)n1 [N-{[(2R)-1-((2S)-2-amino-3-hydroxypropanoyl)pyrrolidin-2-yl]methyl}(6-(2-cyanophenyl)-2-{[2-(3-fluorophenyl)ethyl]amino}(3-pyridyl))carboxamide],173 nM
12,N#Cc1ccccc1-c1ccc(C(=O)NC[C@H]2CCCN2)c(NCCc2cccc(F)c2)n1 [N-[((2R)pyrrolidin-2-yl)methyl](6-(2-cyanophenyl)-2-{[2-(3-fluorophenyl)ethyl]amino}(3-pyridyl))carboxamide],174 nM
13,NCCCN1CCC(CNC(=O)c2ccc(-c3cn[nH]c3)nc2NCCc2cccc(F)c2)C1=O (stereo not drawn) [N-{[1-(3-aminopropyl)-2-oxopyrrolidin-3-yl]methyl}(2-{[2-(3-fluorophenyl)ethyl]amino}-6-pyrazol-4-yl(3-pyridyl))carboxamide],3130 nM
14,COC(=O)CCC(=O)N1CCC[C@@H]1CNC(=O)c1cc(F)c(-c2cnn(C)c2)nc1NCCc1cccc(F)c1 [methyl 4-((2R)-2-{[(5-fluoro-2-{[2-(3-fluorophenyl)ethyl]amino}-6-(1-methylpyrazol-4-yl)(3-pyridyl))carbonylamino]methyl}pyrrolidinyl)-4-oxobutanoate],534 nM
15,COC(=O)[C@H](N)CNC(=O)c1cc(F)c(-c2cnn(C)c2)nc1NCCc1cccc(F)c1 [methyl (2R)-2-amino-3-[(5-fluoro-2-{[2-(3-fluorophenyl)ethyl]amino}-6-(1-methylpyrazol-4-yl)(3-pyridyl))carbonylamino]propanoate],568 nM
16,COC(=O)[C@H](C)CNC(=O)c1cc(F)c(-c2cnn(C)c2)nc1NCCc1cccc(F)c1 [methyl (2R)-3-[(5-fluoro-2-{[2-(3-fluorophenyl)ethyl]amino}-6-(1-methylpyrazol-4-yl)(3-pyridyl))carbonylamino]-2-methylpropanoate],100 nM
17,O=C(NCc1cc[nH]n1)c1cc(F)c(-c2cn[nH]c2)nc1NCCc1cccc(F)c1 [(5-fluoro-2-{[2-(3-fluorophenyl)ethyl]amino}-6-pyrazol-4-yl(3-pyridyl))-N-(pyrazol-3-ylmethyl)carboxamide],24 nM
18,CC(C)(C)OC(=O)NCC(=O)N1CCC[C@H](CNC(=O)c2ccc(-c3ccccc3C#N)nc2NCCc2cccc(F)c2)C1 [N-[((3R)-1-{2-[(tert-butoxy)carbonylamino]acetyl}(3-piperidyl))methyl](6-(2-cyanophenyl)-2-{[2-(3-fluorophenyl)ethyl]amino}(3-pyridyl))carboxamide],199 nM
19,C[C@H](N)C(=O)N1CCC[C@@H]1CNC(=O)c1ccc(-c2ccccc2C#N)nc1NCCc1cccc(F)c1 [N-{[(2R)-1-((2S)-2-aminopropanoyl)pyrrolidin-2-yl]methyl}(6-(2-cyanophenyl)-2-{[2-(3-fluorophenyl)ethyl]amino}(3-pyridyl))carboxamide],53 nM
20,NC(=O)CNC(=O)c1ccc(-c2ccc(CO)s2)nc1NCCc1cccc(F)c1 [N-(carbamoylmethyl)(2-{[2-(3-fluorophenyl)ethyl]amino}-6-[5-(hydroxymethyl)(2-thienyl)](3-pyridyl))carboxamide],496 nM
21,CNC(=O)CCNC(=O)c1ccc(-c2ccccc2C#N)nc1NCCc1cccc(F)c1 [3-[(6-(2-cyanophenyl)-2-{[2-(3-fluorophenyl)ethyl]amino}(3-pyridyl))carbonylamino]-N-methylpropanamide],340 nM

# The next lines start with the values.
row,IC50,SMILES
1,603 nM,N#Cc1ccccc1-c1ccc(C(=O)NCc2ncccc2C(F)(F)F)c(NCCc2cccc(F)c2)n1 [(6-(2-cyanophenyl)-2-{[2-(3-fluorophenyl)ethyl]amino}(3-pyridyl))-N-{[3-(trifluoromethyl)(2-pyridyl)]methyl}carboxamide]
2,260 nM,N#Cc1ccccc1CCNc1nc(-c2ccccc2)ccc1C(=O)NCc1cccnc1
3,17300 nM,C[C@@H](CNc1nc(-c2ccccc2)ccc1C(=O)NCc1cccnc1)c1ccccc1 [{2-[((2R)-2-phenylpropyl)amino]-6-phenyl(3-pyridyl)}-N-(3-pyridylmethyl)carboxamide]
4,11000 nM,Cc1ccccc1-c1ccc(C(=O)NCc2cccnc2)c(NCCc2ccccn2)n1 [{6-(2-methylphenyl)-2-[(2-(2-pyridyl)ethyl)amino](3-pyridyl)}-N-(3-pyridylmethyl)carboxamide]
5,1330 nM,O=C(NCc1cccnc1)c1ccc(-c2cc(F)ccc2Cl)nc1NCCc1cccc(F)c1 [(6-(2-chloro-5-fluorophenyl)-2-{[2-(3-fluorophenyl)ethyl]amino}(3-pyridyl))-N-(3-pyridylmethyl)carboxamide]
6,238 nM,COCCNC(=O)c1ccc(-c2ccccc2C#N)nc1NCCc1cccc(F)c1 [(6-(2-cyanophenyl)-2-{[2-(3-fluorophenyl)ethyl]amino}(3-pyridyl))-N-(2-methoxyethyl)carboxamide]
7,28300 nM,O=C(NCc1cccnc1)c1ccc(-c2ccccc2)nc1NCCc1ccc2c(c1)OCO2
8,66600 nM,N#Cc1ccccc1-c1ccc(C(=O)NCc2ccc(N3CCCC3)nc2)c(NCCc2cccc(F)c2)n1 [(6-(2-cyanophenyl)-2-{[2-(3-fluorophenyl)ethyl]amino}(3-pyridyl))-N-[(6-pyrrolidinyl(3-pyridyl))methyl]carboxamide]
9,450 nM,Cc1cccc(CCNc2nc(-c3ccccc3)ccc2C(=O)NCc2cccnc2)c1 [(2-{[2-(3-methylphenyl)ethyl]amino}-6-phenyl(3-pyridyl))-N-(3-pyridylmethyl)carboxamide]
10,296 nM,N#Cc1ccccc1-c1ccc(C(=O)NCc2ccn(CCN)n2)c(NCCc2cccc(F)c2)n1 [N-{[1-(2-aminoethyl)pyrazol-3-yl]methyl}(6-(2-cyanophenyl)-2-{[2-(3-fluorophenyl)ethyl]amino}(3-pyridyl))carboxamide]
11,4460 nM,CNCCNC(=O)c1ccc(-c2ccccc2C#N)nc1NCCc1cccc(F)c1 [(6-(2-cyanophenyl)-2-{[2-(3-fluorophenyl)ethyl]amino}(3-pyridyl))-N-[2-(methylamino)ethyl]carboxamide]
12,5250 nM,O=C(NCCc1ccccn1)c1ccc(-c2ccccc2)nc1NCCc1ccccc1 [{6-phenyl-2-[(2-phenylethyl)amino](3-pyridyl)}-N-(2-(2-pyridyl)ethyl)carboxamide]
13,994 nM,N#Cc1ccccc1-c1ccc(C(=O)NCCCN)c(NCCc2cccc(F)c2)n1 [N-(3-aminopropyl)(6-(2-cyanophenyl)-2-{[2-(3-fluorophenyl)ethyl]amino}(3-pyridyl))carboxamide]
14,968 nM,N#Cc1ccc(CNC(=O)c2ccc(-c3ccccc3C#N)nc2NCCc2cccc(F)c2)cc1 [(6-(2-cyanophenyl)-2-{[2-(3-fluorophenyl)ethyl]amino}(3-pyridyl))-N-[(4-cyanophenyl)methyl]carboxamide]
15,980 nM,COc1ccccc1CCNc1nc(-c2ccccc2)ccc1C(=O)NCc1cccnc1 [(2-{[2-(2-methoxyphenyl)ethyl]amino}-6-phenyl(3-pyridyl))-N-(3-pyridylmethyl)carboxamide]
